Values after ≈ are worked out from the molar mass of the structure shown.
How the values were obtained:
Mtb H37Rv-WT = assay: MIC by resazurin microtiter assay (REMA) against Mtb; format: cell-based; conditions: Mycobacterium tuberculosis, REMA, read-out: MIC M. tuberculosis
[1] = biological target: NdhA-M. tb (recombinant MBP-NdhA) (Mycobacterium tuberculosis (strain ATCC 25618 / H37Rv), UniProt P95200); assay: Biochemical evaluation of MBP-NdhA inhibition (NADH oxidation with menadione)
M. abscessus R = assay: MIC analysis of non-Mtb mycobacteria; format: cell-based, Mycobacterium abscessus; conditions: Mycobacteroides abscessus, 48 h; 2 days incubation
M. abscessus S = assay: MIC analysis of non-Mtb mycobacteria; format: cell-based, Mycobacterium abscessus; conditions: Mycobacteroides abscessus, 48 h; 2 days incubation
M. smegmatis = assay: MIC analysis of non-Mtb mycobacteria; format: cell-based; conditions: Mycolicibacterium smegmatis, 48 h; 2 days incubation
M. marinum = assay: MIC analysis of non-Mtb mycobacteria; format: cell-based; conditions: Mycobacterium marinum, 120 h; 5 days, 30° C., visual inspection
M. avium = assay: MIC analysis of non-Mtb mycobacteria; format: cell-based; conditions: Mycobacterium avium, 120 h; 5 days incubation
BCG = assay: microbe, parasite or virus in culture; format: cell-based; conditions: Mycobacterium tuberculosis variant bovis BCG, read-out: MIC BCG
[2] = biological target: purified Ndh (Mtb recombinant MBP tagged Ndh-2 enzyme, MBP-Ndh) (Mycobacterium tuberculosis (strain ATCC 25618 / H37Rv), UniProt P95160); assay: Biochemical evaluation of MBP-Ndh inhibition (NADH oxidation with menadione); conditions: read-out: IC50 Ndh-M. tb
purified Ndh (Mtb recombinant MBP tagged Ndh-2 enzyme, MBP-Ndh), sequence (P95160 whole entry, looked up): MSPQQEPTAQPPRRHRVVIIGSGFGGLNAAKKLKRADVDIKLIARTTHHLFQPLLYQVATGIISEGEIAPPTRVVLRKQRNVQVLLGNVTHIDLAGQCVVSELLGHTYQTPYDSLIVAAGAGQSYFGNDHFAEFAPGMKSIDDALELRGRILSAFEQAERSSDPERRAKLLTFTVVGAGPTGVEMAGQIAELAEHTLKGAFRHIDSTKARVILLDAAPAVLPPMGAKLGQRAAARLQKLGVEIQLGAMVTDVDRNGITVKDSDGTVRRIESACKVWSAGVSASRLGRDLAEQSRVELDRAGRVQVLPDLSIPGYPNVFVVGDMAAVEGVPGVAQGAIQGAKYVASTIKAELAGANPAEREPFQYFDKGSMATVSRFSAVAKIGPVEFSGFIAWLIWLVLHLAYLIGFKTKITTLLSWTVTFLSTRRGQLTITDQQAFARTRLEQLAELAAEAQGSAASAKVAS

NdhA-M. tb (recombinant MBP-NdhA), sequence (P95200 whole entry, looked up): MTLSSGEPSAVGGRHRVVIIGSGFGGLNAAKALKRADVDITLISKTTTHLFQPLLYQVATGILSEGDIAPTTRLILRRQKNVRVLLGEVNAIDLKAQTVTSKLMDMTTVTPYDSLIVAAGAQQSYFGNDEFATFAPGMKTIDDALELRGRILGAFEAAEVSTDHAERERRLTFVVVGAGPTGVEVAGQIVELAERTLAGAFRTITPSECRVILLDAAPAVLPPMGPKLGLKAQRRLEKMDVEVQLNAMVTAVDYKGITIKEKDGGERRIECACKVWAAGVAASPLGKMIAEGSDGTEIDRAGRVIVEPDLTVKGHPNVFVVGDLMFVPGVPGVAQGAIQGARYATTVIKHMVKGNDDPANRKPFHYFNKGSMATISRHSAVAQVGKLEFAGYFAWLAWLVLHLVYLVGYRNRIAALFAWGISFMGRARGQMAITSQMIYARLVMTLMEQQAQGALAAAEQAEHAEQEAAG

CC(C)[C@H]1CO[C@]23CCN(Cc4ccc(C(F)(F)F)cc4)C[C@H]2CCC(=O)N13 [Example 2, (3S,7aR,11aR)-3-isopropyl-9-[[4-(trifluoromethyl)phenyl]methyl]-2,3,6,7,7a,8,10,11-octahydrooxazolo[2,3-j][1,6]naphthyridin-5-one]
MIC (Mtb H37Rv-WT): < 1 µM | IC50 [1]: < 100 nM | MIC (M. abscessus R): 1 to 10 µM (≈ 0.396 to 3.96 µg/mL) | MIC (M. abscessus S): 1 to 10 µM (≈ 0.396 to 3.96 µg/mL) | MIC (M. smegmatis): 1 to 10 µM (≈ 0.396 to 3.96 µg/mL) | MIC (M. marinum): < 1 µM | MIC (M. avium): < 1 µM | MIC (BCG): 1 to 10 µM (≈ 0.396 to 3.96 µg/mL)

CC(C)[C@H]1CO[C@]23CCN(Cc4ccc(OC(F)(F)F)cc4)C[C@H]2CCC(=O)N13 [Example 3, (3S,7aR,11aR)-3-isopropyl-9-[[4-(trifluoromethoxy)phenyl]methyl]-2,3,6,7,7a,8,10,11-octahyooxazolo[2,3-j][1,6]naphthyridin-5-one]
MIC (Mtb H37Rv-WT): < 1 µM | IC50 [1]: < 100 nM | MIC (M. abscessus R): 1 to 10 µM (≈ 0.412 to 4.12 µg/mL) | MIC (M. abscessus S): 1 to 10 µM (≈ 0.412 to 4.12 µg/mL) | MIC (M. smegmatis): 1 to 10 µM (≈ 0.412 to 4.12 µg/mL) | MIC (M. marinum): < 1 µM | MIC (M. avium): < 1 µM | MIC (BCG): 1 to 10 µM (≈ 0.412 to 4.12 µg/mL)

CC(C)[C@H]1CO[C@]23CCN(Cc4ccc(Cl)c(C(F)(F)F)c4)C[C@H]2CCC(=O)N13 [Example 9, (3S,7aR,11aR)-9-[[4-chloro-3-(trifluoromethyl)phenyl]methyl]-3-isopropyl-2,3,6,7,7a,8,10,11-octahydrooxazolo[2,3-j][1,6]naphthyridin-5-one]
MIC (Mtb H37Rv-WT): < 1 µM | IC50 [2]: < 100 nM | MIC (M. abscessus R): 1 to 10 µM (≈ 0.431 to 4.31 µg/mL) | MIC (M. abscessus S): 1 to 10 µM (≈ 0.431 to 4.31 µg/mL) | MIC (M. smegmatis): 1 to 10 µM (≈ 0.431 to 4.31 µg/mL) | MIC (M. marinum): < 1 µM | MIC (M. avium): < 1 µM | MIC (BCG): 1 to 10 µM (≈ 0.431 to 4.31 µg/mL)

Reference: US20250353863A1, “TRICYCLIC SPIROLACTAM COMPOUNDS WITH ANTIMYCOBACTERIAL ACTIVITY” (priority 2022, published 2025)
